According to US8367715B2, “Pyrazole derivatives, preparation thereof, and therapeutic use thereof” (priority 2009, dated 2013):
pIC50: −log10 of the molar value.

Columns and labels:
Type in all cases: biochemical
human KDR enzyme = target: T1, human KDR enzyme (Homo sapiens, UniProt P35968); assay: KDR kinase inhibition, phosphorylation of PLCγ substrate, scintillation Flash Plate; settings: read-out: KDR, concentration that inhibits 50% of the kinase activity
T1 construct: The cytoplasmic domain (residues 790 to 1356) of the human KDR enzyme; GST; made in house; host or cells: SF21 insect cells (baculovirus, pFastBac)
T1 sequence (P35968 790-1356): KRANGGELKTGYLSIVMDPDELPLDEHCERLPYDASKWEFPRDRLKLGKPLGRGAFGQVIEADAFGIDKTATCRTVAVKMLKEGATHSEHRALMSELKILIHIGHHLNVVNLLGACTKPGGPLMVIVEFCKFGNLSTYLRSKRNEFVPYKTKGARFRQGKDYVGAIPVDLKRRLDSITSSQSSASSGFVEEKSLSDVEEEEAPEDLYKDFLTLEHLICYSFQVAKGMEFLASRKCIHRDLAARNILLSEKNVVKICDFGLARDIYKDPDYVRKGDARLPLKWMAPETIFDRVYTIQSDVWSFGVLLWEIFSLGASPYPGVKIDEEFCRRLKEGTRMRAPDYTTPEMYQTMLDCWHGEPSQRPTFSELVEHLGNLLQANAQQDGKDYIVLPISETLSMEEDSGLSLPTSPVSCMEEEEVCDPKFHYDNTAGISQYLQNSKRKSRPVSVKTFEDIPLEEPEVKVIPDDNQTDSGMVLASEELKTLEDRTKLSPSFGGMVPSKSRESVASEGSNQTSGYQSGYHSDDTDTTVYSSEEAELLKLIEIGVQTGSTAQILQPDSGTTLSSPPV
Protocol: (§1) The inhibitory effect of the compounds is determined in an in vitro test of phosphorylation of substrate via a scintillation technique (96-well plate of basic Flash Plate type).
The cytoplasmic domain (residues 790 to 1356) of the human KDR enzyme was cloned in the form of a GST fusion in the pFastBac baculovirus expression vector. The protein was expressed in the SF21 cells, purified and activated by autophosphorylation. The substrate is composed of residues 658 to 850 of the PLCγ expressed and purified in the form of a GST fusion protein.
The KDR kinase activity is measured in the buffer 20 mM MOPS, 10 mM MgCl2, 10 mM MnCl2, 1 mM DTT, pH=7.4. The compounds are initially diluted in 100% DMSO, then prepared as a 10× solution in 30% DMSO/70% buffer. […] The radioactivity in each well is measured using a Trilux-βWallac radioactivity counter.
(§2) The background noise is determined by measuring the radioactivity in four different wells containing ATP (radiolabeled and cold) and the substrate, in the absence of enzyme and of compound. The control activity is measured in four different wells containing all the reagents, but in the absence of compound.
The inhibition of the KDR activity with the compound of the invention is expressed as a percentage of inhibition of the control activity determined in the absence of compound.

human Tie2 = target: T2, human Tie2 (Homo sapiens, UniProt Q02763); assay: Tie2 kinase inhibition, phosphorylation of PLCγ substrate, scintillation Flash Plate; settings: read-out: Tie2, concentration that inhibits 50% of the kinase activity
T2 construct: human Tie2 corresponding to the amino acids of the intracellular domain 774-1124; made in house; host or cells: baculovirus expression (pFastBacGT)
T2 sequence (Q02763 774-1124): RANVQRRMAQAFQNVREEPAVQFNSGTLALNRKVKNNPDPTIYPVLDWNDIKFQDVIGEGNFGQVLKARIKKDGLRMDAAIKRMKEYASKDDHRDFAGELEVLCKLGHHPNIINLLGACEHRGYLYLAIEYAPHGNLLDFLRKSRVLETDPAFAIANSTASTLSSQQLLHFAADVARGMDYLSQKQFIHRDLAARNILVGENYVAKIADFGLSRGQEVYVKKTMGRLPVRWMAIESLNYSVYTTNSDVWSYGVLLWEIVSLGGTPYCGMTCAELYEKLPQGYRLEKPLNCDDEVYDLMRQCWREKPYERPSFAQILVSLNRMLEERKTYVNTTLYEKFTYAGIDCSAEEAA
Protocol: as §1
The coding sequence of human Tie2 corresponding to the amino acids of the intracellular domain 774-1124 was introduced into a pFastBacGT baculovirus expression vector in the form of a GST fusion protein. GST-Tie2 was purified and activated by autophosphorylation. The substrate is composed of residues 658 to 850 of the PLCγ expressed and purified in the form of a GST fusion protein.
The kinase activity of Tie2 is measured in a MOPS 20 mM pH 7.4 buffer, containing 10 mM MgCl2, 10 mM MnCl2 and 1 mM DTT. The compounds are initially diluted in 100% DMSO, then prepared as a 10× solution in 30% DMSO/70% buffer. […] The radioactivity in each well is measured using a Trilux-βWallac radioactivity counter.
as §2
The inhibition of the Tie2 activity is calculated and expressed as a percentage of inhibition relative to the control activity determined in the absence of compound.

PDGFRβ = PDGFRβ (Homo sapiens, UniProt P09619); assay: PDGFR kinase phosphorylation activity by radioactive labeling; settings: read-out: PDGFRβ, concentration that inhibits 50% of the kinase activity
PDGFRβ, sequence (P09619 33-1106, species assumed): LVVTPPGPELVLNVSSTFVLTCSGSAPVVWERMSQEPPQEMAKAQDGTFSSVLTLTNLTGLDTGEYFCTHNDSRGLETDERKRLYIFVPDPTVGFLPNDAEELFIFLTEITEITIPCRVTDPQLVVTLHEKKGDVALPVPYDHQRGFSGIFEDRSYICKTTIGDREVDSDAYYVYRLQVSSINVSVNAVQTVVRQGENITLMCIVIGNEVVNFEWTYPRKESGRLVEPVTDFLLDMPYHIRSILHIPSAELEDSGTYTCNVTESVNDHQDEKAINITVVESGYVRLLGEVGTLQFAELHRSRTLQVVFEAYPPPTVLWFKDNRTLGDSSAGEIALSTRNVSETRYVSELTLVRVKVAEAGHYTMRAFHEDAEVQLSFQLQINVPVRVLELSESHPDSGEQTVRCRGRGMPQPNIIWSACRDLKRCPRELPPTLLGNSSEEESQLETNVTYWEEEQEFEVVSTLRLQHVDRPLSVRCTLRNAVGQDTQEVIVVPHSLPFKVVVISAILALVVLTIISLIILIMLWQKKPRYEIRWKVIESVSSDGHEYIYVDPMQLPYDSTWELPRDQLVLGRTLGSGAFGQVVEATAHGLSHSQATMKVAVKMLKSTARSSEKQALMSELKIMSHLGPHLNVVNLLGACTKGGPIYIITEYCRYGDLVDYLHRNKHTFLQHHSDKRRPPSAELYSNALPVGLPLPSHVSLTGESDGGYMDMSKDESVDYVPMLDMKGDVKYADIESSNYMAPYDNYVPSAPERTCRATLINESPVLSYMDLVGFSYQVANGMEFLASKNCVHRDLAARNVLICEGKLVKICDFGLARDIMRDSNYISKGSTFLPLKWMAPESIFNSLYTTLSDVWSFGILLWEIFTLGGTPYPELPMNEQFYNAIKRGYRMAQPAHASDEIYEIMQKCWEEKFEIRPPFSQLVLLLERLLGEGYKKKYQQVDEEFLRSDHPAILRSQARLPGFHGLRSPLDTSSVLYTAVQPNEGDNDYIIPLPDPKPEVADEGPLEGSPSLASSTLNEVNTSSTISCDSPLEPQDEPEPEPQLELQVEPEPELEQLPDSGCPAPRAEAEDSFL
Protocol: 4. Screening of Molecules by Measuring, by Radioactive Labeling, the PDGFR Kinase Phosphorylation Activity in the Presence of PLCγ Substrate The test is carried out in a similar manner to that carried out with the FLT1 enzyme by using, instead of 13 nM of Flt1, 16 nM of PDGFR enzyme and mixed in the 96-well plates are 18 μl of GST-PDGFR enzyme at 4 mg/ml (for a purity of 80%) batch VLT802.

FGFR1 = FGFR1 (Homo sapiens, UniProt P11362); assay: FGFR kinase phosphorylation activity by radioactive labeling; settings: read-out: FGFR1, concentration that inhibits 50% of the kinase activity
FGFR1, sequence (P11362 22-822, species assumed): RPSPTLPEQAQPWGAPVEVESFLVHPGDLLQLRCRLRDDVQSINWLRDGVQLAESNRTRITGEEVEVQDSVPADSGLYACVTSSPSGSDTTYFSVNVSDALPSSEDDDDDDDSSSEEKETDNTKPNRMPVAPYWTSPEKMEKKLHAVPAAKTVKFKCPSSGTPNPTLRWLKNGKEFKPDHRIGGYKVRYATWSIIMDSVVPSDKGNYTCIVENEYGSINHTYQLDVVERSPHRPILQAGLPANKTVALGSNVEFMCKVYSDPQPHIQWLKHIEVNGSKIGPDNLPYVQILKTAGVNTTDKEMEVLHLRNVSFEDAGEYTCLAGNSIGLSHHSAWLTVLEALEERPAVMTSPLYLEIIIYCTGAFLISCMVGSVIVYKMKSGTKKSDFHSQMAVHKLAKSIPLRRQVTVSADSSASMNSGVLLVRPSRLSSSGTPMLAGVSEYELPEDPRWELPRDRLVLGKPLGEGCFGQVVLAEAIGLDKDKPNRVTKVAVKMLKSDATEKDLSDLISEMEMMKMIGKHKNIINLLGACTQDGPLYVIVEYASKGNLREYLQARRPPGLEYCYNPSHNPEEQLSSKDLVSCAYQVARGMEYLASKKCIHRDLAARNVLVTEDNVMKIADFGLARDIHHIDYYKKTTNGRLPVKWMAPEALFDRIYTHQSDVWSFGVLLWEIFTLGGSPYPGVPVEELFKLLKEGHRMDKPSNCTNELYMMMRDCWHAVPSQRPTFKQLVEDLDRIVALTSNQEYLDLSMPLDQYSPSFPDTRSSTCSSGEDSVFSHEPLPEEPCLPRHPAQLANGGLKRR
Protocol: 5. Screening of Molecules by Measuring, by Radioactive Labeling, the FGFR Kinase Phosphorylation Activity in the Presence of PLCγ Substrate
The test is carried out in a similar manner to that carried out with the FLT1 enzyme by using, instead of 13 nM of Flt1, 27 nM of FGFR enzyme and mixed in the 96-well plates are 18 μl of GST-FGFR enzyme at 1.1 mg/ml (for a purity of 100%): (batch JCE3666).

Structure (SMILES) | pIC50 (human KDR enzyme) | pIC50 (human Tie2) | pIC50 (PDGFRβ) | pIC50 (FGFR1)
Cl.NC(=O)c1n[nH]cc1NCc1cc(F)cc(NC(=O)Nc2ccc(C(F)(F)F)cc2Cl)c1 [Example 1, 4-{3-[3-(2-Chloro-4-trifluoromethylphenyl)ureido]-5-fluorobenzylamino}-1H-pyrazole-3-carboxamide hydrochloride] | 8.52 | 7.44 | 7.96 | 7.27
Cl.NC(=O)c1n[nH]cc1NCc1cc(F)cc(NC(=O)Nc2ccc(C(F)(F)F)cc2F)c1 [Example 2, 4-{3-[3-(2-Fluoro-4-trifluoromethylphenyl)ureido]-5-fluorobenzylamino}-1H-pyrazole-3-carboxamide hydrochloride] | 8.70 | 7.41 | 7.70 | 7.04
